Laboratory results from PubChem BioAssay AID1963862 (Molecular Pharmacology Branch, DTP, NCI, 2024).
pIC50: −log10 of the molar value.

Test system: KRAS patient-derived spheroids with HUVEC/MSC, viability
Experiment: Anticancer human tumor 941728-121-R-J1-PDC patient-derived lung adenocarcinoma cell line growth inhibition [KRAS2]
Conditions: for pIC50: curve of first compound; for viability, T/C: stronger effect = lower value
How it was run: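 KRAS-mutant tumor cells were grown as spheroids with HUVEC endothelial cells and human MSCs as stroma. Targeted agents were tested alone and with KRAS pathway inhibitors. Doses started at or near clinical Cmax, or 10 microM, descending half-log.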

[1] = second compound 0.0316 µM, first compound 0.0316 µM
[2] = second compound 0.0316 µM, first compound 0.1 µM
[3] = second compound 0.0316 µM, first compound 0.316 µM
[4] = second compound 0.0316 µM, first compound 1 µM
[5] = second compound 0.0316 µM, first compound 3.16 µM
[6] = second compound 0.0316 µM, first compound 10 µM
[7] = second compound 0.1 µM, first compound 0.0316 µM
[8] = second compound 0.1 µM, first compound 0.1 µM
[9] = second compound 0.1 µM, first compound 0.316 µM
[10] = second compound 0.1 µM, first compound 1 µM
[11] = second compound 0.1 µM, first compound 3.16 µM
[12] = second compound 0.1 µM, first compound 10 µM
[13] = second compound 0.316 µM, first compound 0.0316 µM
[14] = second compound 0.316 µM, first compound 0.1 µM
[15] = second compound 0.316 µM, first compound 0.316 µM
[16] = second compound 0.316 µM, first compound 1 µM
[17] = second compound 0.316 µM, first compound 3.16 µM
[18] = second compound 0.316 µM, first compound 10 µM
[19] = second compound 1 µM, first compound 0.0316 µM
[20] = second compound 1 µM, first compound 0.1 µM
[21] = second compound 1 µM, first compound 0.316 µM
[22] = second compound 1 µM, first compound 1 µM
[23] = second compound 1 µM, first compound 3.16 µM
[24] = second compound 1 µM, first compound 10 µM
[25] = second compound 3.16 µM, first compound 0.0316 µM
[26] = second compound 3.16 µM, first compound 0.1 µM
[27] = second compound 3.16 µM, first compound 0.316 µM
[28] = second compound 3.16 µM, first compound 1 µM
[29] = second compound 3.16 µM, first compound 3.16 µM
[30] = second compound 3.16 µM, first compound 10 µM
[31] = second compound 0.0316 µM, first compound 0.01 µM
[32] = second compound 0.1 µM, first compound 0.01 µM
[33] = second compound 0.316 µM, first compound 0.01 µM
[34] = second compound 1 µM, first compound 0.01 µM
[35] = second compound 3.16 µM, first compound 0.01 µM
[36] = second compound 0.0316 µM, first compound 0.00316 µM
[37] = second compound 0.1 µM, first compound 0.00316 µM
[38] = second compound 0.316 µM, first compound 0.00316 µM
[39] = second compound 1 µM, first compound 0.00316 µM
[40] = second compound 3.16 µM, first compound 0.00316 µM
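Further: spheroids exposed to agents for seven days before readout.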

SMILES	pIC50 (second compound 0.0316 µM)	pIC50 (second compound 0.1 µM)	pIC50 (second compound 0.316 µM)	pIC50 (second compound 1 µM)	pIC50 (second compound 3.16 µM)	viability, T/C [1] [%]	viability, T/C [2] [%]	viability, T/C [3] [%]	viability, T/C [4] [%]	viability, T/C [7] [%]	viability, T/C [8] [%]	viability, T/C [9] [%]	viability, T/C [10] [%]	viability, T/C [13] [%]	viability, T/C [14] [%]	viability, T/C [15] [%]	viability, T/C [19] [%]	viability, T/C [20] [%]	viability, T/C [25] [%]	viability, T/C [26] [%]	further results
CC(C)NCC(C(=O)N1CCN(c2ncnc3c2C(C)CC3O)CC1)c1ccc(Cl)cc1 (stereo not given) + C=CC(=O)N1CCN(c2nc(OCC3CCCN3C)nc3c2CCN(c2cccc4cccc(C)c24)C3)CC1CC#N	> 7.50	> 7.50	> 7.50	> 7.50	> 7.50	29.1	29.5	23.4	23.5	27.3	30	22.8	19.5	26.8	26.6	26.5	27.4	24.1	0.13	0.12	viability, T/C [5]: 18%; viability, T/C [6]: 7.87%; viability, T/C [11]: 14.5%; viability, T/C [12]: 7.59%; viability, T/C [16]: 18.9%; viability, T/C [17]: 15.7%; viability, T/C [18]: 8.89%; viability, T/C [21]: 18.9%; viability, T/C [22]: 15%; viability, T/C [23]: 12.5%; viability, T/C [24]: 4.68%; viability, T/C [27]: 0.12%; viability, T/C [28]: 0.15%; viability, T/C [29]: 0.18%; viability, T/C [30]: 0.25%
CC1(C)CCC(CN2CCN(c3ccc(C(=O)NS(=O)(=O)c4ccc(NCC5CCOCC5)c([N+](=O)[O-])c4)c(Oc4cnc5[nH]ccc5c4)c3)CC2)=C(c2ccc(Cl)cc2)C1 + C=CC(=O)N1CCN(c2nc(OCC3CCCN3C)nc3c2CCN(c2cccc4cccc(C)c24)C3)CC1CC#N	> 7.50	> 7.50	> 7.50	> 7.50	> 7.50	26.6	26.4	26.4	24	26.5	23.7	24.9	25.1	25.2	25.5	25	22.6	21.4	0.12	0.13	viability, T/C [5]: 6%; viability, T/C [6]: 4.38%; viability, T/C [11]: 5.88%; viability, T/C [12]: 2.8%; viability, T/C [16]: 25.8%; viability, T/C [17]: 5.25%; viability, T/C [18]: 3.74%; viability, T/C [21]: 21.4%; viability, T/C [22]: 21.4%; viability, T/C [23]: 5.13%; viability, T/C [24]: 1.61%; viability, T/C [27]: 0.1%; viability, T/C [28]: 0.09%; viability, T/C [29]: 0.08%; viability, T/C [30]: 0.12%
CC1COCCN1c1cc(-c2ccnn2C)c2ccnc(-c3ccn[nH]3)c2n1 (stereo not given) + C=CC(=O)N1CCN(c2nc(OCC3CCCN3C)nc3c2CCN(c2cccc4cccc(C)c24)C3)CC1CC#N	> 8.00	> 8.00	> 8.00	> 8.00	> 8.00	24.8	19.9	19.6	16.9	28.3	19.9	18.5	16.6	22.7	25.9	17.6	24.2	19	10.7	2.17	viability, T/C [31]: 26.5%; viability, T/C [5]: 14.6%; viability, T/C [32]: 26.5%; viability, T/C [11]: 13.3%; viability, T/C [33]: 23%; viability, T/C [16]: 16.1%; viability, T/C [17]: 12.8%; viability, T/C [34]: 22.9%; viability, T/C [21]: 18.1%; viability, T/C [22]: 18.9%; viability, T/C [23]: 15.4%; viability, T/C [35]: 2.14%; viability, T/C [27]: 1.73%; viability, T/C [28]: 6.37%; viability, T/C [29]: 6%
CCN1CCN(Cc2ccc(Nc3ncc(F)c(-c4cc(F)c5nc(C)n(C(C)C)c5c4)n3)nc2)CC1 + C=CC(=O)N1CCN(c2nc(OCC3CCCN3C)nc3c2CCN(c2cccc4cccc(C)c24)C3)CC1CC#N	> 8.50	> 8.50	> 8.50	> 8.50	> 8.50	23.5	25.4	26.3	26.9	18.9	20.8	18.1	23.5	19.1	20.2	21.1	20.1	18.4	0.49	0.73	viability, T/C [36]: 24.3%; viability, T/C [31]: 25.6%; viability, T/C [37]: 20.9%; viability, T/C [32]: 21.3%; viability, T/C [38]: 21%; viability, T/C [33]: 21.2%; viability, T/C [16]: 21.6%; viability, T/C [39]: 21.3%; viability, T/C [34]: 21.4%; viability, T/C [21]: 19.4%; viability, T/C [22]: 20%; viability, T/C [40]: 1.17%; viability, T/C [35]: 1.06%; viability, T/C [27]: 0.52%; viability, T/C [28]: 0.18%
CCNC(=O)CC1N=C(c2ccc(Cl)cc2)c2cc(OC)ccc2-n2c(C)nnc21 (stereo not given) + C=CC(=O)N1CCN(c2nc(OCC3CCCN3C)nc3c2CCN(c2cccc4cccc(C)c24)C3)CC1CC#N	> 7.50	> 7.50	6.64	> 7.50	> 7.50	31.2	33.5	24.4	20.3	27.5	26.7	22.2	16.4	49.5	66.1	47	27.3	28	1.15	1.91	viability, T/C [5]: 16.1%; viability, T/C [6]: 14.9%; viability, T/C [11]: 12.3%; viability, T/C [12]: 15.4%; viability, T/C [16]: 39.8%; viability, T/C [17]: 33.6%; viability, T/C [18]: 33.7%; viability, T/C [21]: 21.1%; viability, T/C [22]: 16.2%; viability, T/C [23]: 12%; viability, T/C [24]: 10.6%; viability, T/C [27]: 0.39%; viability, T/C [28]: 1.58%; viability, T/C [29]: 0.42%; viability, T/C [30]: 0.35%
Cn1ncnc1[C@H]1c2n[nH]c(=O)c3cc(F)cc(c23)N[C@@H]1c1ccc(F)cc1 + C=CC(=O)N1CCN(c2nc(OCC3CCCN3C)nc3c2CCN(c2cccc4cccc(C)c24)C3)CC1CC#N	> 9.50	> 9.50	> 9.50	> 9.50	> 9.50	17.4	17.5			17.3	15.8			16	17.1		15.5	14.2	0.16	0.23	viability, T/C (second compound 0.0316 µM, first compound 0.000316 µM): 24.6%; viability, T/C (second compound 0.0316 µM, first compound 0.001 µM): 23.2%; viability, T/C [36]: 19.4%; viability, T/C [31]: 19.7%; viability, T/C (second compound 0.1 µM, first compound 0.000316 µM): 18.3%; viability, T/C (second compound 0.1 µM, first compound 0.001 µM): 18.2%; viability, T/C [37]: 19.9%; viability, T/C [32]: 17.6%; viability, T/C (second compound 0.316 µM, first compound 0.000316 µM): 18.2%; viability, T/C (second compound 0.316 µM, first compound 0.001 µM): 18.9%; viability, T/C [38]: 17.9%; viability, T/C [33]: 16.2%; viability, T/C (second compound 1 µM, first compound 0.000316 µM): 17.6%; viability, T/C (second compound 1 µM, first compound 0.001 µM): 17.5%; viability, T/C [39]: 13.5%; viability, T/C [34]: 18.3%; viability, T/C (second compound 3.16 µM, first compound 0.000316 µM): 0.11%; viability, T/C (second compound 3.16 µM, first compound 0.001 µM): 0.2%; viability, T/C [40]: 0.09%; viability, T/C [35]: 0.11%
